# Tests used:
# [1] = system: cultured fibroblasts derived from the placenta (MMP-producing cells); assay: Cell exfoliation assay to search for MMP activators; format: cell-based; conditions: fibroblasts from bovine fetal placenta, monolayer treated with cortisol, compound added; FIG. 2 and FIG. 3
# Experimental: The in vitro pharmacological evaluation is exemplified by a method using cultured fibroblasts derived from the placenta (MMP-producing cells). First, the composition for placental exfoliation of the present invention is added to a culture medium of the concerned cultured fibroblasts. After the addition, the cells are cultured for a fixed period of time.
# Therefore, cultured fibroblasts derived from the placenta (MMP-producing cells) were used to search for MMP activators.
# Since in vivo MMP-2 is produced from fibroblasts, fibroblasts were prepared from bovine fetal placenta. A fixed amount of cells were seeded on the culture plate, and were treated with cortisol after the monolayer formation. Further, the MMP activator candidate compounds were added thereto.
# pregnant Holstein cow = assay: Placental exfoliation by administration of 12-oxoarachidonic acid to a cow after prostaglandin-induced fetal delivery; format: in vivo
# Experimental: The in vivo pharmacological evaluation is exemplified by a method using cows which have delivered fetuses by means of the single administration of a prostaglandin. First, the composition for placental exfoliation of the present invention is administered to cows after the fetal delivery.
# In order to induce the fetal delivery, a formulation (10 ml) containing a naturally-occurring prostaglandin (50 mg) was intramuscularly injected into the hip of a pregnant Holstein cow (dairy cow) (body weight 779 kg) a week prior to the due date. Moreover, a cow after the third calving was again administered with the prostaglandin after 12 hours from the first injection thereof (evening on the first day).
# The mother cow and the newborn calf were both healthy.
# Next, after 4 hours from the fetal delivery, a saline solution (15 ml) containing 12-oxoarachidonic acid (1 mg) was intrajugularly injected into the mother cow which had delivered a fetus. After about 6 hours from the injection, the whole amount of the placenta was released from the mother cow. FIG. 4 presents photographs showing the manner of such parturition. […] In cases of the non-administration of 12-oxoarachidonic acid, the placenta was not released from the mother cow, and the placental retention occurred.
# MMP = MMP activity in released placenta by gelatin zymography; format: in vivo, cow; conditions: PG-induction+oxo placenta compared with normal parturition and placental retention; FIG. 5
# Experimental: In the method using gelatin zymography, first, the composition for MMP activation of the present invention is brought into contact with MMP-producing cells. After the incubation for a fixed time, the cells are lysed to make a protein solution, which is then subjected to an electrophoresis using a SDS polyacrylamide electrophoresis gel containing a gelatin (MMP substrate). After the migration, the temperature was kept for a fixed time to progress the enzyme reaction, followed by staining of undegraded gelatin remaining in the gel.
# The MMP activity in released placenta was analyzed. The samples were as follows: a placenta released from a mother cow of normal parturition (without specific treatment) (expressed as “normal parturition” in FIG. 5); a placenta from a mother cow which was subjected to the fetal delivery induction with a prostaglandin but suffered from placental retention (expressed as “PG-induced parturition” in FIG. 5); a placenta released from a mother cow which was subjected to the fetal delivery induction with a prostaglandin and the subsequent placental release induction with a 12-oxoarachidonic acid (expressed as “PG-induction+oxo” in FIG. 5); and a placenta from a mother cow which had naturally-occurring placental retention (expressed as “placental retention cow” in FIG. 5).
# The MMP activity was measured using gelatin zymography. […]
SMILES,cell exfoliation activity (MMP activation ability) [1],further results
CCCCC/C=C\C[C@@H](O)/C=C/C=C\C/C=C\CCCC(=O)O [12(R)-hydroxyarachidonic acid],no cell exfoliation activities,–
CCCCC/C=C\C[C@@H](/C=C/C=C\C/C=C\CCCC(=O)O)OO [12(S)-hydroperoxyarachidonic acid],weak cell exfoliation activities,–
CCCCC/C=C\C[C@H](O)/C=C/C=C\C/C=C\CCCC(=O)O [12(S)-hydroxyarachidonic acid],no cell exfoliation activities,–
CCCCC/C=C\CC(=O)/C=C/C=C\C/C=C\CCCC(=O)O [12-oxoarachidonic acid],showed a cell exfoliation activity at a lower concentration than that of the arachidonic acid itself,"time from injection to release of the whole amount of the placenta (pregnant Holstein cow; 1 mg in 15 ml saline, intrajugular, 4 hours after fetal delivery, Holstein cow 779 kg): about 6 hours; reproductive function of the postexperimental mother cow (pregnant Holstein cow; after 1 mg intrajugular 12-oxoarachidonic acid): reproductive function was not affected; MMP pattern (proMMP activity) of released placenta (MMP): MMP pattern very close to that of the placenta released from the cow of normal parturition"
CCCCC/C=C\C/C=C\C/C=C\C/C=C\CCCC(=O)O [arachidonic acid],confirmed to have a cell exfoliation activity,–
CCCCC/C=C\C/C=C\C/C=C\CCCCCCC(=O)O [dihomo-γ-linolenic acid],weak activity,–
CCCCC/C=C\C/C=C\CCCCCCCC(=O)O [linoleic acid],weak activity,–
CC/C=C\C/C=C\C/C=C\C/C=C\CCCCC(=O)O [stearidonic acid],weak activity,–
CC/C=C\C/C=C\C/C=C\CCCCCCCC(=O)O [α-linolenic acid],weak activity,–
CCCCC/C=C\C/C=C\C/C=C\CCCCC(=O)O [γ-linolenic acid],medium activity,–
CC/C=C/C/C=C/C/C=C/C/C=C/CCCCCCC(=O)O [ω-3-arachidonic acid],weak activity,–
